Source: patent publication EP0244803B1, “Novel dopamine beta hydroxylase inhibitors” (MERRELL DOW PHARMACEUTICALS INC., priority 1986, dated 1987)

Tests used:
DBH = assay: In vivo DBH inhibition: heart dopamine level in spontaneously hypertensive rats; conditions: Treated SHR's, 50 mg/kg, IP, 3 hours post dose; mean ± standard deviation; micrograms of dopamine per gram of heart tissue; *** p<.001 vs control
Method: In this test spontaneously hypertensive rats are dosed (i.p.) at 50 mg per kilogram of body weight and sacrificed three hours later.

[1] = test system: spontaneously hypertensive rats (SHR's); assay: Antihypertensive effect: blood pressure monitored continuously in SHR's after ip administration; type: in vivo; conditions: 50 mg/kg; for Max Change MBP: mean difference ± standard deviation; for Max Change MBP (percent, in parentheses): percent change printed in parentheses
Method: The test compound is administered intraperitoneally (ip) to rats and the blood pressure monitored continuously.

[2] = target: T1, dopamine beta-hydroxylase (DBH) (Bos taurus, UniProt P15101); assay: In vitro DBH inhibition: conversion of tyramine to octopamine, oxygen uptake measured with a polarographic electrode; type: biochemical; conditions: pH 5, 37°C preferred; concentration at which DBH activity was halved; read-out: IC₅₀
T1 sequence (P15101 33-610): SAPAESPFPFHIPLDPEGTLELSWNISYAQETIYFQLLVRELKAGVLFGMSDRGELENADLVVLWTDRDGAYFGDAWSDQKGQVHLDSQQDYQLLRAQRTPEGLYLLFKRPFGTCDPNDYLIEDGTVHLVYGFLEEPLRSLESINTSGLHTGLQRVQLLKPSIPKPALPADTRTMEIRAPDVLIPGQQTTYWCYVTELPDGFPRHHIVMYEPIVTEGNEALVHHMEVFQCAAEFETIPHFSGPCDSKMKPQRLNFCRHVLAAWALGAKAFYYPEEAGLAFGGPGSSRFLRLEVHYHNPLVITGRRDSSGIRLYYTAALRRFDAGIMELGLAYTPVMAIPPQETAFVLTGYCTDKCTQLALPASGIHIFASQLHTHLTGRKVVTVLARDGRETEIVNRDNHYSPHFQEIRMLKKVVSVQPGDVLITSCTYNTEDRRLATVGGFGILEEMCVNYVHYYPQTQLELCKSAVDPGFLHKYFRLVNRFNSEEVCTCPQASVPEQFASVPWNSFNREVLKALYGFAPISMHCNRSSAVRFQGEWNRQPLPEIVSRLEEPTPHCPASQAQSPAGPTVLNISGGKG
Method: The DBH inhibitory properties of the compounds of this invention can readily be determined in vitro by standard and well known procedures for assaying conversion of tyramine to octopamine in the presence of dopamine beta-hydroxylase. Enzymatic oxygenation by DBH is determined in aqueous solution in the presence of molecular oxygen, an electron donor such as ascorbate, and the necessary cofactors for the enzyme at pH of 5 and a temperature of 20°-40°C, preferably 37°C. The test compound is added at the desired concentration, and the system is incubated.

| Compound | Heart DA (DBH) | Max Change MBP [1] [mmHg] | Max Change MBP (percent, in parentheses) [1] [%] | IC50 [2] [µM] |
| --- | --- | --- | --- | --- |
| 1-[(Fluoro-2-thienyl)methyl]-1,3-dihydro-2H-imidazole-2-thione [Compound 6] | Treated .045±.005*** µg/g | -42±17 | 25 | 2.9 |
| S=c1[nH]ccn1Cc1cccs1 [Compound 1, 1,3-Dihydro-(2-thienylmethyl)-2H-imidazole-2-thione] | Treated .066±.005*** µg/g | -30±21 | 18 |  |
| S=c1[nH]ccn1Cc1ccsc1 [Compound 2, 1,3-Dihydro-1-(3-thienylmethyl)-2H-imidazole-2-thione] | Treated .066±.012*** µg/g | -21±27 | 12 |  |
| S=c1[nH]ccn1Cc1ccco1 [Compound 3, 1-(2-Furanylmethyl)-1,3-dihydro-2H-imidazole-2-thione] | Treated .079±.004*** µg/g |  |  |  |
| S=c1[nH]ccn1Cc1ccc(Cl)s1 [Compound 4, 1-[(5-Chloro-2-thienyl)methyl]-1,3-dihydro-2H-imidazole-2-thione] | Treated .046±.009*** µg/g | -22±5 | 13 |  |
| Cc1ccc(Cn2cc[nH]c2=S)s1 [Compound 5, 1,3-Dihydro-1-[(5-methyl-2-thienyl)methyl]-2H-imidazole-2-thione] | Treated .048±.004*** µg/g | -37±19 | 10 | 6 |
